According to US10166279B2, “Vaccine” (Bergen Teknologioverføring AS, priority 2013, dated 2019):
Peptide text beside a SMILES is read from it.

What follows are compounds tested against T1, GC-C receptor (Homo sapiens, UniProt P25092) (assay: GC-C receptor T-84 cell assay (toxicity, cGMP levels) of culture filtrates). Conditions: T84 cell assay, culture filtrate.
T1 construct: endogenous in cells; host or cells: T-84 cells
Type: cell-based
Procedure: T-84 cells were seeded and cultured in each well of a 24 well plate. After removing the Dulbecco's modified Eagle's medium (DMEM:F12 (1:1) Lonza Walkersville, Inc.), cells were washed 3 times with 0.5 mL DMEM. Cells were incubated with 0.25 mL DMEM containing 1 mM 3-isobutyl-1-methylxanthine (IBMX) for 10 min at 37° C. 0.1 mL of sample (culture filtrate) was added to each well and incubated for 60 min at 37° C. Following incubation, the reaction medium was aspirated, and the cells were lysed with […] HCl at room temperature for 20 min. The lysates were centrifuged at top speed for 10 min and the cGMP levels were measured in control- and agonist-stimulated cells with a direct cGMP enzyme immunoassay kit (Enzo Life Sciences, Inc.) according to the manufacturer's instructions.
The culture filtrate of each mutant was added to the T-84 cells in duplicate, and a serial dilution of culture filtrates with recombinantly expressed native ST was used to generate a standard curve.
Toxicity measured in culture filtrates is a product of intrinsic toxicity (toxicity per mol) and the concentration of the ST mutant. The same is true for antigenicity. […] Since we have no method for accurately measuring ST (mutant) concentrations in culture filtrates, we are not able to directly measure intrinsic toxicities and antigenicities for the ST mutants.
To circumvent this problem we measure toxicity and antigenicity for the ST mutants relative to native ST. This allows us to describe changes in toxicity and antigenicity in mutant culture filtrates. Next, we divide the change in antigenicity by the change in toxicity for each mutant. If the same culture filtrate has been used to measure toxicity and antigenicity this allows us to eliminate the of the concentration.

T1 sequence (P25092 24-1073): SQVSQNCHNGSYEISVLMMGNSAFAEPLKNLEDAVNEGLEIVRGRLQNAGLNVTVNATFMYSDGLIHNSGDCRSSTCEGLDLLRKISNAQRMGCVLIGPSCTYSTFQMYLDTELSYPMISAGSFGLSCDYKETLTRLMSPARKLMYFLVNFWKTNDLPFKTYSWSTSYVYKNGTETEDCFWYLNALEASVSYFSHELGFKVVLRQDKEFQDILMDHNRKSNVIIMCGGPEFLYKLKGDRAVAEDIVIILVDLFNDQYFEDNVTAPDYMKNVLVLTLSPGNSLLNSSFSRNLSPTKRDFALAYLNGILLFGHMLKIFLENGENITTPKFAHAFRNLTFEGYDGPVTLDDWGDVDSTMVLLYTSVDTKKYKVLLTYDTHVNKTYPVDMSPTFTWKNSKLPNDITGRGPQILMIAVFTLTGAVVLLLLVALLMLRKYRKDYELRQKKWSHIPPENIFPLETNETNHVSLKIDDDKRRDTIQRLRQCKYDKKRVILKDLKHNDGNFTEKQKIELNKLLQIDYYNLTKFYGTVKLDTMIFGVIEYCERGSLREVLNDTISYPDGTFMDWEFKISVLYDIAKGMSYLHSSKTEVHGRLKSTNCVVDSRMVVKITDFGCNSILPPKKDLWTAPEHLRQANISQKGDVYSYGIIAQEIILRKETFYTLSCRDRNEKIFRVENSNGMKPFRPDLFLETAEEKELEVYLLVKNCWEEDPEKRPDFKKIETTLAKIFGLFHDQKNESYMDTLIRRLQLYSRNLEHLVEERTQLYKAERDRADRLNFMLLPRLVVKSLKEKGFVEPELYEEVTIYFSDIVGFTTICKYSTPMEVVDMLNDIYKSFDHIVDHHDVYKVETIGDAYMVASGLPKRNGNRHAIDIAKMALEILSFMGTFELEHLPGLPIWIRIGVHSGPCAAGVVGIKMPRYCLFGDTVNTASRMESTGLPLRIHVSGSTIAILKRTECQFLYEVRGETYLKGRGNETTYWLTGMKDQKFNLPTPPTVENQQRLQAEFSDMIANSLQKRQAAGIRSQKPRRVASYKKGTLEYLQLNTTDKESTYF

Compound	toxicity relative to native STh
CC(C)C[C@@H]1NC(=O)[C@H](CCC(=O)O)NC(=O)[C@@H]2CSSC[C@@H]3NC(=O)[C@H](C)NC(=O)[C@@H]4CCCN4C(=O)[C@H]([C@@H](C)O)NC(=O)[C@H](CSSC[C@H](NC(=O)[C@H](Cc4ccc(O)cc4)NC(=O)[C@H](CC(N)=O)NC(=O)[C@H](CO)NC(=O)[C@H](CO)NC(=O)[C@@H](N)CC(N)=O)C(=O)N2)NC(=O)[C@H](CSSC[C@@H](C(=O)N[C@@H](Cc2ccc(O)cc2)C(=O)O)NC(=O)CNC(=O)[C@H]([C@@H](C)O)NC3=O)NC1=O [Mutant N12T] (HELM PEPTIDE1{N.S.S.N.Y.C.C.E.L.C.C.T.P.A.C.T.G.C.Y}$PEPTIDE1,PEPTIDE1,6:R3-11:R3|PEPTIDE1,PEPTIDE1,7:R3-15:R3|PEPTIDE1,PEPTIDE1,10:R3-18:R3$$$V2.0)	0.03

Same assay, conditions: relative to native STh; culture filtrate; ^2 = no detectable toxicity, set to detection limit 0.0014

Compound	Toxicity
CC(C)C[C@@H]1NC(=O)[C@H](CCC(=O)O)NC(=O)[C@@H]2CSSC[C@@H]3NC(=O)[C@H](Cc4c[nH]cn4)NC(=O)[C@@H]4CCCN4C(=O)[C@H](CC(N)=O)NC(=O)[C@H](CSSC[C@H](NC(=O)[C@H](Cc4ccc(O)cc4)NC(=O)[C@H](CC(N)=O)NC(=O)[C@H](CO)NC(=O)[C@H](CO)NC(=O)[C@@H](N)CC(N)=O)C(=O)N2)NC(=O)[C@H](CSSC[C@@H](C(=O)N[C@@H](Cc2ccc(O)cc2)C(=O)O)NC(=O)CNC(=O)[C@H]([C@@H](C)O)NC3=O)NC1=O [Mutant A14H] (HELM PEPTIDE1{N.S.S.N.Y.C.C.E.L.C.C.N.P.H.C.T.G.C.Y}$PEPTIDE1,PEPTIDE1,6:R3-11:R3|PEPTIDE1,PEPTIDE1,7:R3-15:R3|PEPTIDE1,PEPTIDE1,10:R3-18:R3$$$V2.0)	< 0.0014^2
CC(C)C[C@@H]1NC(=O)[C@H](CCC(=O)O)NC(=O)[C@@H]2CSSC[C@@H]3NC(=O)[C@H](C)NC(=O)[C@@H]4CCCN4C(=O)[C@H](CC(N)=O)NC(=O)[C@H](CSSC[C@H](NC(=O)[C@H](Cc4ccc(O)cc4)NC(=O)[C@H](CC(N)=O)NC(=O)[C@H](CO)NC(=O)[C@H](CO)NC(=O)[C@@H](N)CC(N)=O)C(=O)N2)NC(=O)[C@H](CSSC[C@@H](C(=O)N[C@@H](Cc2ccc(O)cc2)C(=O)O)NC(=O)CNC(=O)[C@H](CCCNC(=N)N)NC3=O)NC1=O [Mutant T16R] (HELM PEPTIDE1{N.S.S.N.Y.C.C.E.L.C.C.N.P.A.C.R.G.C.Y}$PEPTIDE1,PEPTIDE1,6:R3-11:R3|PEPTIDE1,PEPTIDE1,7:R3-15:R3|PEPTIDE1,PEPTIDE1,10:R3-18:R3$$$V2.0)	0.0111
CC(C)C[C@@H]1NC(=O)[C@H](CCC(=O)O)NC(=O)[C@@H]2CSSC[C@@H]3NC(=O)[C@H](C)NC(=O)[C@@H]4CCCN4C(=O)[C@H](CC(N)=O)NC(=O)[C@H](CSSC[C@H](NC(=O)[C@H](Cc4ccc(O)cc4)NC(=O)[C@H](CC(N)=O)NC(=O)[C@H](CO)NC(=O)[C@H](CC(N)=O)NC(=O)[C@@H](N)CC(N)=O)C(=O)N2)NC(=O)[C@H](CSSC[C@@H](C(=O)N[C@@H](Cc2ccc(O)cc2)C(=O)O)NC(=O)CNC(=O)[C@H]([C@@H](C)O)NC3=O)NC1=O [Mutant S02N] (HELM PEPTIDE1{N.N.S.N.Y.C.C.E.L.C.C.N.P.A.C.T.G.C.Y}$PEPTIDE1,PEPTIDE1,6:R3-11:R3|PEPTIDE1,PEPTIDE1,7:R3-15:R3|PEPTIDE1,PEPTIDE1,10:R3-18:R3$$$V2.0)	0.7308
CC(C)C[C@@H]1NC(=O)[C@H](CCC(=O)O)NC(=O)[C@@H]2CSSC[C@@H]3NC(=O)[C@H](C)NC(=O)[C@@H]4CCCN4C(=O)[C@H](CCCCN)NC(=O)[C@H](CSSC[C@H](NC(=O)[C@H](Cc4ccc(O)cc4)NC(=O)[C@H](CC(N)=O)NC(=O)[C@H](CO)NC(=O)[C@H](CO)NC(=O)[C@@H](N)CC(N)=O)C(=O)N2)NC(=O)[C@H](CSSC[C@@H](C(=O)N[C@@H](Cc2ccc(O)cc2)C(=O)O)NC(=O)CNC(=O)[C@H]([C@@H](C)O)NC3=O)NC1=O [Mutant N12K] (HELM PEPTIDE1{N.S.S.N.Y.C.C.E.L.C.C.K.P.A.C.T.G.C.Y}$PEPTIDE1,PEPTIDE1,6:R3-11:R3|PEPTIDE1,PEPTIDE1,7:R3-15:R3|PEPTIDE1,PEPTIDE1,10:R3-18:R3$$$V2.0)	0.5113
CC(C)C[C@@H]1NC(=O)[C@H](CCC(=O)O)NC(=O)[C@@H]2CSSC[C@@H]3NC(=O)[C@H](C)NC(=O)[C@@H]4CCCN4C(=O)[C@H](CC(N)=O)NC(=O)[C@H](CSSC[C@H](NC(=O)[C@H](Cc4ccc(O)cc4)NC(=O)[C@H](CC(N)=O)NC(=O)[C@H](CO)NC(=O)[C@H](CO)NC(=O)[C@@H](N)CC(N)=O)C(=O)N2)NC(=O)[C@H](CSSC[C@@H](C(=O)N[C@@H](Cc2ccc(O)cc2)C(=O)O)NC(=O)[C@H](Cc2ccc(O)cc2)NC(=O)[C@H]([C@@H](C)O)NC3=O)NC1=O [Mutant G17Y] (HELM PEPTIDE1{N.S.S.N.Y.C.C.E.L.C.C.N.P.A.C.T.Y.C.Y}$PEPTIDE1,PEPTIDE1,6:R3-11:R3|PEPTIDE1,PEPTIDE1,7:R3-15:R3|PEPTIDE1,PEPTIDE1,10:R3-18:R3$$$V2.0)	0.0234
CC(C)C[C@@H]1NC(=O)[C@H](CCC(=O)O)NC(=O)[C@@H]2CSSC[C@@H]3NC(=O)[C@H](C)NC(=O)[C@H](C)NC(=O)[C@H](CC(N)=O)NC(=O)[C@H](CSSC[C@H](NC(=O)[C@H](Cc4ccc(O)cc4)NC(=O)[C@H](CC(N)=O)NC(=O)[C@H](CO)NC(=O)[C@H](CO)NC(=O)[C@@H](N)CC(N)=O)C(=O)N2)NC(=O)[C@H](CSSC[C@@H](C(=O)N[C@@H](Cc2ccc(O)cc2)C(=O)O)NC(=O)CNC(=O)[C@H]([C@@H](C)O)NC3=O)NC1=O [Mutant P13A] (HELM PEPTIDE1{N.S.S.N.Y.C.C.E.L.C.C.N.A.A.C.T.G.C.Y}$PEPTIDE1,PEPTIDE1,6:R3-11:R3|PEPTIDE1,PEPTIDE1,7:R3-15:R3|PEPTIDE1,PEPTIDE1,10:R3-18:R3$$$V2.0)	< 0.0014^2
CC(C)C[C@@H]1NC(=O)[C@H](CCC(=O)O)NC(=O)[C@@H]2CSSC[C@@H]3NC(=O)[C@H](C)NC(=O)[C@@H]4CCCN4C(=O)[C@H](CC(N)=O)NC(=O)[C@H](CSSC[C@H](NC(=O)[C@H](Cc4ccc(O)cc4)NC(=O)[C@H](CC(C)C)NC(=O)[C@H](CO)NC(=O)[C@H](CO)NC(=O)[C@@H](N)CC(N)=O)C(=O)N2)NC(=O)[C@H](CSSC[C@@H](C(=O)N[C@@H](Cc2ccc(O)cc2)C(=O)O)NC(=O)CNC(=O)[C@H]([C@@H](C)O)NC3=O)NC1=O [Mutant N04L] (HELM PEPTIDE1{N.S.S.L.Y.C.C.E.L.C.C.N.P.A.C.T.G.C.Y}$PEPTIDE1,PEPTIDE1,6:R3-11:R3|PEPTIDE1,PEPTIDE1,7:R3-15:R3|PEPTIDE1,PEPTIDE1,10:R3-18:R3$$$V2.0)	0.2934
CC(C)C[C@@H]1NC(=O)[C@H](CCC(=O)O)NC(=O)[C@@H]2CSSC[C@@H]3NC(=O)[C@H](CCCNC(=N)N)NC(=O)[C@@H]4CCCN4C(=O)[C@H](CC(N)=O)NC(=O)[C@H](CSSC[C@H](NC(=O)[C@H](Cc4ccc(O)cc4)NC(=O)[C@H](CC(N)=O)NC(=O)[C@H](CO)NC(=O)[C@H](CO)NC(=O)[C@@H](N)CC(N)=O)C(=O)N2)NC(=O)[C@H](CSSC[C@@H](C(=O)N[C@@H](Cc2ccc(O)cc2)C(=O)O)NC(=O)CNC(=O)[C@H]([C@@H](C)O)NC3=O)NC1=O [Mutant A14R] (HELM PEPTIDE1{N.S.S.N.Y.C.C.E.L.C.C.N.P.R.C.T.G.C.Y}$PEPTIDE1,PEPTIDE1,6:R3-11:R3|PEPTIDE1,PEPTIDE1,7:R3-15:R3|PEPTIDE1,PEPTIDE1,10:R3-18:R3$$$V2.0)	< 0.0014^2
CSCC[C@H](N)C(=O)N[C@@H](CO)C(=O)N[C@@H](CO)C(=O)N[C@@H](CC(N)=O)C(=O)N[C@@H](Cc1ccc(O)cc1)C(=O)N[C@H]1CSSC[C@@H]2NC(=O)[C@@H]3CSSC[C@@H](C(=O)N[C@@H](Cc4ccc(O)cc4)C(=O)O)NC(=O)CNC(=O)[C@H]([C@@H](C)O)NC(=O)[C@H](CSSC[C@H](NC1=O)C(=O)N[C@@H](CCC(=O)O)C(=O)N[C@@H](CC(C)C)C(=O)N3)NC(=O)[C@H](C)NC(=O)[C@@H]1CCCN1C(=O)[C@H](CC(N)=O)NC2=O [Mutant N01M] (HELM PEPTIDE1{M.S.S.N.Y.C.C.E.L.C.C.N.P.A.C.T.G.C.Y}$PEPTIDE1,PEPTIDE1,6:R3-11:R3|PEPTIDE1,PEPTIDE1,7:R3-15:R3|PEPTIDE1,PEPTIDE1,10:R3-18:R3$$$V2.0)	1.8910
CC(C)C[C@@H]1NC(=O)[C@H](CCC(=O)O)NC(=O)[C@@H]2CSSC[C@@H]3NC(=O)[C@H](CCC(N)=O)NC(=O)[C@@H]4CCCN4C(=O)[C@H](CC(N)=O)NC(=O)[C@H](CSSC[C@H](NC(=O)[C@H](Cc4ccc(O)cc4)NC(=O)[C@H](CC(N)=O)NC(=O)[C@H](CO)NC(=O)[C@H](CO)NC(=O)[C@@H](N)CC(N)=O)C(=O)N2)NC(=O)[C@H](CSSC[C@@H](C(=O)N[C@@H](Cc2ccc(O)cc2)C(=O)O)NC(=O)CNC(=O)[C@H]([C@@H](C)O)NC3=O)NC1=O [Mutant A14Q] (HELM PEPTIDE1{N.S.S.N.Y.C.C.E.L.C.C.N.P.Q.C.T.G.C.Y}$PEPTIDE1,PEPTIDE1,6:R3-11:R3|PEPTIDE1,PEPTIDE1,7:R3-15:R3|PEPTIDE1,PEPTIDE1,10:R3-18:R3$$$V2.0)	< 0.0014^2
